Like-named read-outs stand apart in the source and are kept apart here.
Columns and labels:
[1] = test system: LNCaP/AR cells; assay: Inhibition of the proliferation of LNCap/AR cells (CCK-8); assay type: cell-based; settings: read-out: LNCap/AR IC50
Outline: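 LNCaP/AR cells (1000/well, RPMI1640 + 10% FBS) were treated for 6 days at 37 °C with 9-point 3-fold dilutions from 10 μM final, 0.1% DMSO, in duplicate. Viability was read by CCK-8 absorbance at 450 nm after 1 h, and IC50 came from a dose-response-inhibition fit.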

[2] = test system: 22RV1 cells; assay: Inhibition of the proliferation of drug-resistant prostate cancer cell 22RV1 (CCK-8); assay type: cell-based; settings: 22RV1 cells (enzalutamide-resistant), same method
Method: (1) Experimental materials and instruments: LNCaP/AR cell line and 22RV1 cell line (provided by Sichuan Kangcheng Biotechnology Co., Ltd.) Fetal bovine serum FBS (Gibco, Cat. No. 10099-141) 0.01M PBS (Biosharp, Cat. No. 162262) RIPM1640 medium (Hyclone, Cat. No. 308090.01) Penicillin-Streptomycin (Hyclone, Cat. No. SV30010) Cell counting kit-8 (Signalway Antibody, Cat. No. CP002) DMSO (Sigma, Cat. No. D5879) Centrifuge Tube, 15 ml (Excell Bio, Cat. No. CS015-0001) Cell Culture Dish, (Excell Bio, Cat. No. CS016-0128) 96-well cell culture plate (Corning, Cat. No. 3599) Microplate reader (Thermo Multiskan MK3 type)
a. Preparation of Buffer Cell culture medium: RIPM1640 medium, 10% FBS, 1% Pen Strep: PBS buffer: PBS powder was dissolved in 2 L of ultrapure water and sterilized. b. Experimental Procedures 1) LNCaP/AR cells were subcultured in cell culture media, and then the cells in good growth condition were seeded in a 96-well plate at 80 μL/well (1000 cells/well), and cultured overnight in a 37° C., 5% CO2 cell incubator. 2) The drug was prepared into a 10 mM stock solution with dimethyl sulfoxide (DMSO). Prior to use, the stock solution was diluted in a ratio of […] with DMSO, and then diluted at a 3-fold gradient to obtain 9 serial concentrations. Then, each concentration of compound was further diluted in a ratio of 1:200 with the culture medium (to ensure that the DMSO concentration in the culture system was 0.1%), and two wells were set for each concentration. 20 μL of the diluted compound solution was added to the well of the cell culture (with a final concentration of 10 μM, 3.3 μM, 1.1 μM . . . ), and then the plate was gently tapped to thoroughly mix. In addition, the experiment included 3 negative control wells only containing cells and 3 blank control wells only containing culture medium (6 wells were each added with DMSO diluted in a ratio of 1:200 with 20 μL of culture medium). c. Result Detection: 1) After culturing for 6 days, 10 μL of CCK-8 was added to each well, and the plate was further incubated for 1 h in a 37° C., 5% CO2 cell incubator. 2) The absorbance (OD value) was measured at 450 nm with a multifunctional microplate reader. 3) The data was analyzed by the Dose-response-inhibition equation in the software GraphPad Prism5, and the IC50 value was obtained. 2. Biological assay of the inhibition on the proliferation of other drug-resistant prostate cancer cells
The same test method was used to determine the inhibitory activity of the compound according to the present invention against drug-resistant prostate cancer cell 22RV1.

[3] = LNCaP/AR cells, 6 days culture, CCK-8
[4] = 144 h, LNCaP/AR cells, 6 days culture, CCK-8

IC50 [1, 3]	IC50 [2]	IC50 [1, 4]	IC50 ([2]; Homo sapiens)	Compound	IC50 ([1]; LNCaP/AR, 144 h)
> 2000 nM	> 2000 nM	–	–	Cc1ccc(-c2c(C)noc2C)cc1N(c1ccc(C2(C#N)CC2)cc1)C1CN(C2CC(Nc3cc4c(cc3F)C(=O)N([C@H]3CCC(=O)NC3=O)C4)C2)C1 (stereo partly drawn) [Compound 69, 1-(4-((5-(3,5-dimethylisoxazol-4-yl)-2-methylphenyl)(1-((1 s,3s)-3-((2-(2,6-dioxopiperidin-3-yl)-6-fluoro-1-oxoisoindolin-5-yl)amino)cyclobutyl)azetidin-3-yl)amino)phenyl)cyclopropane-1-nitrile]	–
–	–	> 2000 nM	> 2000 nM	Cc1ccc(-c2c(C)noc2C)cc1N(CC1CN([C@H]2C[C@@H](Nc3cc4c(cc3F)C(=O)N(C3CCC(=O)NC3=O)C4=O)C2)C1)c1ccc(C2(C#N)CC2)cc1 (stereo partly drawn) [Compound 71, 1-(4-((5-(3,5-dimethylisoxazol-4-yl)-2-methylphenyl)((1-((1s,3s)-3-((2-(2,6-dioxopiperidin-3-yl)-6-fluoro-1,3-dioxoisoindolin-5-yl)amino)cyclobutyl)azetidin-3-yl)methyl)amino)phenyl)cyclopropane-1-nitrile]	–
–	–	> 2000 nM	> 2000 nM	Cc1ccc(-c2c(C)noc2C)cc1N(CC1CN([C@H]2C[C@H](Nc3cc4c(cc3F)C(=O)N(C3CCC(=O)NC3=O)C4=O)C2)C1)c1ccc(C2(C#N)CC2)cc1 (stereo partly drawn) [Compound 72, 1-(4-((5-(3,5-dimethylisoxazol-4-yl)-2-methylphenyl][(1-((1r,3r)-3-((2-(2,6-dioxopiperidin-3-yl)-6-fluoro-1,3-dioxoisoindolin-5-yl)amino)cyclobutyl)azetidin-3-yl)methyl)amino)phenyl)cyclopropane-1-nitrile]	–
> 2000 nM	> 2000 nM	–	–	Cc1ccc(-c2c(C)noc2C)cc1N(c1ccc(C2(C#N)CC2)cc1)C1CN(C2CCC(Nc3cc4c(cc3F)C(=O)N(C3CCC(=O)NC3=O)C4=O)CC2)C1 (stereo not drawn) [Compound 73, 1-(4-((5-(3,5-dimethylisoxazol-4-yl)-2-methylphenyl)(1-((1s,4s)-4-((2-(2,6-dioxopiperidin-3-yl)-6-fluoro-1,3-dioxoisoindolin-5-yl)amino)cyclohexyl)azetidin-3-yl)amino)phenyl)cyclopropane-1-nitrile]	–
> 2000 nM	> 2000 nM	–	–	Cc1ccc(-c2c(C)noc2C)cc1N(c1ccc(C2(C#N)CC2)cc1)C1CN([C@H]2CC[C@H](Nc3cc4c(cc3F)C(=O)N(C3CCC(=O)NC3=O)C4=O)CC2)C1 (stereo partly drawn) [Compound 74]	–
–	–	> 2000 nM	> 2000 nM	Cc1ccc(-c2c(C)noc2C)cc1N(CC1CN(C2CCN(c3ccc4c(c3)C(=O)N(C3CCC(=O)NC3=O)C4)CC2)C1)c1ccc(C2(C#N)CC2)cc1 (stereo not drawn) [Compound 75, 1-(4-((5-(3,5-dimethylisoxazol-4-yl)-2-methylphenyl)((1-(1-(2-(2,6-dioxopiperidin-3-yl)-3-oxoisoindolin-5-yl)piperidin-4-yl)azetidin-3-yl)methyl)amino)phenyl)cyclopropane-1-carbonitrile]	–
–	–	> 2000 nM	> 2000 nM	Cc1ccc(-c2c(C)noc2C)cc1N(CC1CN(C2CCN(c3ccc4c(c3)CN(C3CCC(=O)NC3=O)C4=O)CC2)C1)c1ccc(C2(C#N)CC2)cc1 (stereo not drawn) [Compound 76, 1-(4-((5-(3,5-dimethylisoxazol-4-yl)-2-methylphenyl)((1-(1-(2-(2,6-dioxopiperidin-3-yl)-1-oxoisoindolin-5-yl)piperidinyl-4-yl)azetidin-3-yl)methyl)amino)phenyl)cyclopropane-1-carbonitrile]	–
–	–	> 2000 nM	> 2000 nM	Cc1ccc(-c2c(C)noc2C)cc1N(CC1CCN(CC2CN(c3ccc4c(c3)C(=O)N(C3CCC(=O)NC3=O)C4=O)C2)CC1)c1ccc(C2(C#N)CC2)cc1 (stereo not drawn) [Compound 78, 1-(4-((5-(3,5-dimethylisoxazol-4-yl)-2-methylphenyl)((1-((1-(2-(2,6-dioxopiperidin-3-yl)-1,3-dioxoisoindolin-5-yl)azetidin-3-yl)methyl)piperidin-4-yl)methyl)amino)phenyl)cyclopropane-1-carbonitrile]	–
–	–	> 2000 nM	> 2000 nM	Cc1ccc(-c2c(C)noc2C)cc1N(CC(C)O[C@@H]1CCN(c2ccc3c(c2)C(=O)N(C2CCC(=O)NC2=O)C3=O)C1)c1ccc(C2(C#N)CC2)cc1 (stereo partly drawn) [Compound 102, 1-(4-((5-(3,5-Dimethylisoxazol-4-yl)-2-methylphenyl)(2-(((3R)-1-(2-(2,6-dioxopiperidin-3-yl)-1,3-dioxoisoindolin-5-yl)pyrrolidin-3-yl)oxy)propyl)amino)phenyl)cyclopropanecarbonitrile]	–
–	–	> 2000 nM	> 2000 nM	Cc1ccc(-c2c(C)noc2C)cc1N(CC(C)O[C@H]1CCN(c2ccc3c(c2)C(=O)N(C2CCC(=O)NC2=O)C3=O)C1)c1ccc(C2(C#N)CC2)cc1 (stereo partly drawn) [Compound 103, 1-(4-((5-(3,5-Dimethylisoxazol-4-yl)-2-methylphenyl)(2-(((3S)-1-(2-(2,6-dioxopiperidin-3-yl)-1,3-dioxoisoindolin-5-yl)pyrrolidin-3-yl)oxy)propyl)amino)phenyl)cyclopropanecarbonitrile]	–
501 to 2000 nM	101 to 500 nM	–	–	Cc1ccc(-c2c(C)noc2C)cc1N(CC1CCC(COc2ccc3c(c2)C(=O)N(C2CCC(=O)NC2=O)C3=O)CC1)c1ccc(C#N)c(Cl)c1 (stereo not drawn) [Compound 104, 2-Chloro-4-((5-(3,5-dimethylisoxazol-4-yl)-2-methylphenyl)((1r,4r)-4-((2-(2,6-dioxopiperidin-3-yl)-1,3-dioxoisoindolin-5-yl)oxy)methyl)cyclohexyl)methyl)amino)benzonitrile]	–

Compound	IC50 [1, 3]	IC50 [2]	IC50 [1, 4]	IC50 ([2]; Homo sapiens)	IC50 ([1]; LNCaP/AR, 144 h)
Cc1ccc(-c2c(C)noc2C)cc1N(CC1CCN(C2CCN(c3ccc4c(c3)C(=O)N(C3CCC(=O)NC3=O)C4=O)CC2)CC1)c1ccc(C2(C#N)CC2)cc1 (stereo not drawn) [Compound 77, 1-(4-((5-(3,5-dimethylisoxazol-4-yl)-2-methylphenyl)((1′-(2-(2,6-dioxopiperidin-3-yl)-1,3-dioxoisoindolin-5-yl)-[1,4′-bipiperidine]-4-yl)methyl)amino)phenyl)cyclopropane-1-nitrile]	–	–	–	> 2000 nM	> 2000 nM
Cc1ccc(-c2c(C)n[nH]c2C)cc1N(CCCCCOCC(=O)N[C@H](C(=O)N1C[C@H](O)C[C@H]1C(=O)N[C@@H](C)c1ccc(-c2scnc2C)cc1)C(C)(C)C)c1ccc(C#N)c(Cl)c1 [Compound 79, (2S,4R)-1-((S)-2-(2-((5-((3-chloro-4-cyanophenyl)(5-(3,5-dimethyl-1H-pyrazol-4-yl)-2-methylphenyl)amino)pentyl)oxy)acetylamino)-3,3-dimethylbutyryl)-4-hydroxy-N—((S)-1-(4-(4-methylthiazol-5-yl)phenyl)ethyl)pyrrolidinyl-2-formamide]	101 to 500 nM	> 2000 nM	–	–	–
CC(=O)O[C@@H]1C[C@@H](C(=O)N[C@@H](C)c2ccc(-c3scnc3C)cc2)N(C(=O)[C@@H](NC(=O)COCCCCCN(c2ccc(C#N)c(Cl)c2)c2cc(-c3c(C)n[nH]c3C)ccc2C)C(C)(C)C)C1 [Compound 80]	501 to 2000 nM	> 2000 nM	–	–	–
Cc1ccc(-c2c(C)noc2C)cc1N(CC1CCC(COc2ccc3c(c2)CN(C2CCC(=O)NC2=O)C3=O)CC1)c1ccc(C#N)c(Cl)c1 (stereo not drawn) [Compound 105, 2-Chloro-4-((5-(3,5-dimethylitsoxazol-4-yl)-2-methylphenyl)((1r,4r)-4-((2-((2,6-dioxopiperidin-3-yl)-1-oxoisoindolin-5-yl)oxy)methyl)cyclohexyl)methyl)amino)benzonitrile]	501 to 2000 nM	101 to 500 nM	–	–	–
